Reference: patent US20220315554A1, “COMPOUNDS COMPRISING A […] LIGAND AND USE THEREOF” (priority 2019, published 2022)
Numbered stars: 1 amine (or outer) side, 2 acyl side, 3 side chain; on linkers, the order of the positions; unused ones are H or OH. Bridge positions count the residues as written; N and C are the ends. Square brackets hold non-standard residues; d marks the D form. Peptide text beside a SMILES is read from it. * marks the point of attachment. X5 = O=C(O)CN1CCN(CC(=O)O)CCN(CC(=O)NCCSCc2cc(CSC[C@@H](CO)N[*:2])cc(C[*:1])c2)CCN(CC(=O)O)CC1; X35 = O=C(O)CN(CCN(CCN(CC(=O)O)CC(=O)O)CC(=O)NCCCOCCOCCOCCCN*)CC(=O)O; DOTA = O=C(O)CN1CCN(CC(=O)O)CCN(CC(=O)*)CCN(CC(=O)O)CC1; Pyridine(2,6-diCH2) = c1cc(C[*:1])nc(C[*:2])c1; mXylylene = c1cc(C[*:1])cc(C[*:2])c1; X25 = NCCSCc1cc(C[*:1])cc(C[*:2])c1; X41 = NCCCCCC(=O)NCCCOCCOCCOCCCN*; Suc = O=C(CCC(=O)[*:2])[*:1]; Nle = CCCC[C@H](N)C(=O)O; Octanoyl = CCCCCCCC(=O)*; Hexanoyl = CCCCCC(=O)*; CO = O=C([*:1])[*:2]; NHPentyl = CCCCCN*

Experiments:
[1] = molecular target: T1, Human recombinant FAP (Homo sapiens, UniProt Q12884); experiment: FRET-based FAP protease activity assay; assay type: biochemical; design: purchased R&D systems 3715-SE; details: pIC50 Category (Activity), FRET substrate, 37° C.
T1 sequence (Q12884 1-760): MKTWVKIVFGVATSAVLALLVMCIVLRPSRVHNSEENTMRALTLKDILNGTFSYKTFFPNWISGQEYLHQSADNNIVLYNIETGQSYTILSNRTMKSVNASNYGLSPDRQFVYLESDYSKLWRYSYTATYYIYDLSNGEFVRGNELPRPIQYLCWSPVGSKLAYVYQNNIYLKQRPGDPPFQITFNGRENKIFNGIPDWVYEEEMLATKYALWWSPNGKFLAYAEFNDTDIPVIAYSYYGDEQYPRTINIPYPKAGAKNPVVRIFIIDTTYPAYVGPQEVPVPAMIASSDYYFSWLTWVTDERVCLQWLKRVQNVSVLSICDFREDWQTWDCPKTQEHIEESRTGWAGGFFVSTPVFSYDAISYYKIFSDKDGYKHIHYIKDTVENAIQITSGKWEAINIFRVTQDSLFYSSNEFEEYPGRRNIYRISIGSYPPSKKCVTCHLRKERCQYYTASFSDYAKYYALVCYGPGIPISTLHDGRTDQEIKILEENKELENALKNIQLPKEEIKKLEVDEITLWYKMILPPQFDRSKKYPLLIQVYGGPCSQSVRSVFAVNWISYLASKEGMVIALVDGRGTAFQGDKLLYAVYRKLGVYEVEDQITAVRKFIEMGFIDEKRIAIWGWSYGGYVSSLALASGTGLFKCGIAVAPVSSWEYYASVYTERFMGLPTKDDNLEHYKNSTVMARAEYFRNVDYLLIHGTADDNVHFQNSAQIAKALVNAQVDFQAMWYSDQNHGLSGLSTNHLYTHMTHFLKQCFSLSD

[2] = molecular target: T2, FAP-expressing human WI-38 fibroblasts (Homo sapiens, UniProt Q12884); experiment: Competitive FACS binding assay; details: competition with 3 nM Cy5-labeled compound, 4° C., 1 hour; for IC50: pIC50 Category (FACS)
T2 construct: FAP-expressing human WI-38 fibroblasts (ECACC) were cultured in EMEM; host or cells: WI-38 human fibroblasts
T2 sequence (Q12884 1-760): T1 sequence (Q12884 1-760)
Protocol: Cells were analyzed in an Attune NxT flow cytometer. […]

| IC50 ([1]; recombinant human FAP) | IC50 ([2]; WI-38 fibroblasts) | Structure (SMILES) | IC50 [1] | IC50 [2] | pIC50 Category (FACS) [2] |
| --- | --- | --- | --- | --- | --- |
| 100 to 794 nM | 100 to 794 nM | CSCC[C@H](NC(C)=O)C(=O)N[C@H]1CSCc2cccc(c2)CSC[C@@H](C(=O)N[C@@H](CC(=O)O)C(=O)N[C@@H](Cc2c[nH]cn2)C(=O)N[C@@H](Cc2ccccc2)C(=O)N[C@@H](CCCNC(=N)N)C(=O)N[C@@H](CC(=O)O)C(N)=O)NC(=O)[C@H](Cc2ccccc2)NC(=O)[C@H](CCC(=O)O)NC(=O)[C@H]([C@@H](C)O)NC(=O)[C@@H]2CCCN2C(=O)[C@@H](C)NC1=O [3BP-3215, Ac-Met-[Cys(3MeBn)-ala-Pro-Thr-Glu-Phe-Cys]-Asp-His-Phe-Arg-Asp-NH2] (Ac-MC[dA]PTEFCDHFRD-NH2; linker 2-8 via mXylylene) | – | – | – |
| 100 to 794 nM | 100 to 794 nM | C[C@@H](O)[C@@H]1NC(=O)[C@@H]2CCCN2C(=O)[C@@H]2CCCN2C(=O)[C@@H](NC(=O)CN2CCN(CC(=O)O)CCN(CC(=O)O)CCN(CC(=O)O)CC2)CSCc2cccc(c2)CSC[C@@H](C(=O)N[C@@H](CC(=O)O)C(=O)N[C@@H](Cc2c[nH]cn2)C(=O)N[C@@H](Cc2ccccc2)C(=O)N[C@@H](CCCNC(=N)N)C(=O)N[C@@H](CC(=O)O)C(N)=O)NC(=O)[C@H](Cc2ccccc2)NC(=O)[C@H](CCC(=O)O)NC1=O [3BP-3174, DOTA-[Cys(3MeBn)-Pro-Pro-Thr-Glu-Phe-Cys]-Asp-His-Phe-Arg-Asp-NH2] ({DOTA}-CPPTEFCDHFRD-NH2; linker 1-7 via mXylylene) | – | – | – |
| 10 to 79.4 nM | 10 to 79.4 nM | CSCC[C@H](NC(C)=O)C(=O)N[C@H]1CSCc2cccc(c2)CSC[C@H](C(=O)N[C@@H](CC(=O)O)C(=O)N[C@@H](Cc2c[nH]cn2)C(=O)N[C@@H](Cc2ccccc2)C(=O)N[C@@H](CCCNC(=N)N)C(=O)N[C@@H](CC(=O)O)C(N)=O)NC(=O)[C@H](Cc2ccccc2)NC(=O)[C@H](CCC(=O)O)NC(=O)[C@H]([C@@H](C)O)NC(=O)[C@@H]2CCCN2C(=O)[C@@H]2CCCN2C1=O [3BP-3182, Ac-Met-[Cys(3MeBn)-Pro-Pro-Thr-Glu-Phe-cys]-Asp-His-Phe-Arg-Asp-NH2] (Ac-MCPPTEF[dC]DHFRD-NH2; linker 2-8 via mXylylene) | – | – | – |
| – | – | CCCCCC(=O)N[C@H]1CSCc2cc(CSCCNC(=O)CN3CCN(CC(=O)O)CCN(CC(=O)O)CCN(CC(=O)O)CC3)cc(c2)CSC[C@@H](CO)NC(=O)[C@H](Cc2ccccc2)NC(=O)[C@H](CCC(N)=O)NC(=O)[C@H]([C@@H](C)O)NC(=O)[C@@H]2CCCN2C(=O)[C@@H]2CCCN2C1=O [3BP-3762, Hex-[Cys(tMeBn(DOTA-AET))-Pro-Pro-Thr-Gln-Phe-Cysol]] (Hexanoyl-CPPTQF; linker 1-C via X5) | 100 to 794 nM | > 1000 nM | – |
| – | – | CCCCCC(=O)N[C@H]1CSCc2cc(CSCCNC(=O)CCP(=O)(O)CN3CCN(CP(=O)(O)CO)CCN(CP(=O)(O)CO)CC3)cc(c2)CSC[C@@H](C(=O)O)NC(=O)[C@H](Cc2ccccc2)NC(=O)[C@H](CCC(N)=O)NC(=O)[C@H]([C@@H](C)O)NC(=O)[C@@H]2CCCN2C(=O)[C@@H]2CCCN2C1=O [3BP-4380, Hex-[Cys-(tMeBn(NOPO-AET))-Pro-Pro-Thr-Gln-Phe-Cys]-OH] | < 10 nM | < 10 nM | – |
| – | – | CCCC[C@H](NC(=O)CCC(=O)NCCCOCCOCCOCCCNC(=O)CN(CCN(CC(=O)O)CC(=O)O)CCN(CC(=O)O)CC(=O)O)C(=O)N[C@H]1CSCc2cccc(c2)CSC[C@@H](C(=O)O)NC(=O)[C@H](Cc2ccccc2)NC(=O)[C@H](CCC(=O)O)NC(=O)[C@H]([C@@H](C)O)NC(=O)[C@@H]2CCCN2C(=O)[C@@H]2CCCN2C1=O [3BP-4229, DTPA-Ttds-Nle-[Cys-(3MeBn)-Pro-Pro-Thr-Glu-Phe-Cys]-OH] ({X35-Suc}-[Nle]CPPTEFC-OH; linker 2-8 via mXylylene) | 10 to 79.4 nM | 100 to 794 nM | – |
| 10 to 79.4 nM | 100 to 794 nM | CCCCCC(=O)N[C@H]1CSCc2cccc(c2)CSC[C@@H](C(N)=O)NC(=O)[C@H](Cc2ccccc2)NC(=O)[C@H](CCC(=O)O)NC(=O)[C@H]([C@@H](C)O)NC(=O)[C@@H]2CCCN2C(=O)CNC1=O [3BP-3345, Hex-[Cys(3MeBn)-Gly-Pro-Thr-Glu-Phe-Cys]-NH2] (Hexanoyl-CGPTEFC-NH2; linker 1-7 via mXylylene) | – | – | – |
| – | – | CCCCCC(=O)N[C@H]1CSCc2cc(CSCCN)cc(c2)CSC[C@@H](C(=O)N[C@@H](CC(=O)O)C(N)=O)NC(=O)[C@H](Cc2ccccc2)NC(=O)[C@H](CCC(N)=O)NC(=O)[C@H]([C@@H](C)O)NC(=O)[C@@H]2CCCN2C(=O)[C@@H]2CCCN2C1=O [3BP-3981, Hex-[Cys-(tMeBn(H-AET))-Pro-Pro-Thr-Gln-Phe-Cys]-Asp-NH2] (Hexanoyl-CPPTQFCD-NH2; linker 1-7 via X25) | < 10 nM | 10 to 79.4 nM | – |
| 100 to 794 nM | 100 to 794 nM | CCCC[C@H](NC(=O)CN1CCN(CC(=O)O)CCN(CC(=O)O)CCN(CC(=O)O)CC1)C(=O)N[C@H]1CSCc2cccc(c2)CSC[C@@H](C(=O)N[C@@H](CC(=O)O)C(=O)N[C@@H](Cc2c[nH]cn2)C(=O)N[C@@H](Cc2ccccc2)C(=O)N[C@@H](CCCNC(=N)N)C(=O)N[C@@H](CC(=O)O)C(N)=O)NC(=O)[C@H](Cc2ccccc2)NC(=O)[C@H](CCC(=O)O)NC(=O)[C@H]([C@@H](C)O)NC(=O)[C@@H]2CCCN2C(=O)[C@@H]2CCCN2C1=O [3BP-3088, DOTA-Nle-[Cys(3MeBn)-Pro-Pro-Thr-Glu-Phe-Cys]-Asp-His-Phe-Arg-Asp-NH2] ({DOTA}-[Nle]CPPTEFCDHFRD-NH2; linker 2-8 via mXylylene) | – | – | – |
| – | – | CCCC[C@H](NC(=O)CCC(=O)NCCCOCCOCCOCCCNC(=O)CCCCCN)C(=O)N[C@H]1CSCc2cccc(c2)CSC[C@@H](C(=O)N[C@@H](CC(=O)O)C(N)=O)NC(=O)[C@H](Cc2ccccc2)NC(=O)[C@H](CCC(N)=O)NC(=O)[C@H]([C@@H](C)O)NC(=O)[C@@H]2CCCN2C(=O)[C@@H]2CCCN2C1=O [3BP-3980, H-Ahx-Ttds-Nle-[Cys-(3MeBn)-Pro-Pro-Thr-Gln-Phe-Cys]-Asp-NH2] ({X41-Suc}-[Nle]CPPTQFCD-NH2; linker 2-8 via mXylylene) | < 10 nM | < 10 nM | – |
| – | – | CCCCCS(=O)(=O)N[C@H]1CSCc2cc(CSCCNC(=O)CN3CCN(CC(=O)O)CCN(CC(=O)O)CCN(CC(=O)O)CC3)cc(c2)CSC[C@@H](C(=O)O)NC(=O)[C@H](Cc2ccccc2)NC(=O)[C@H](CCC(N)=O)NC(=O)[C@H]([C@@H](C)O)NC(=O)[C@@H]2CCCN2C(=O)[C@@H]2CCCN2C1=O [3BP-3691, Pentyl-SO2-[Cys(tMeBn(DOTA-AET))-Pro-Pro-Thr-Glu-Phe-Cys]-OH] | 10 to 79.4 nM | – | A (pIC50 values >8.0) |

| Structure (SMILES) | IC50 ([1]; recombinant human FAP) | IC50 ([2]; WI-38 fibroblasts) | IC50 [1] | IC50 [2] | pIC50 Category (FACS) [2] |
| --- | --- | --- | --- | --- | --- |
| CCCCCCCC(=O)N[C@H]1CSCc2cccc(c2)CSC[C@@H](C(=O)N[C@@H](CC(=O)O)C(N)=O)NC(=O)[C@H](Cc2ccccc2)NC(=O)[C@H](CCC(N)=O)NC(=O)[C@H]([C@@H](C)O)NC(=O)[C@@H]2CCCN2C(=O)[C@@H]2CCCN2C1=O [3BP-3417, Oct-[Cys(3MeBn)-Pro-Pro-Thr-Gln-Phe-Cys]-Asp-NH2] (Octanoyl-CPPTQFCD-NH2; linker 1-7 via mXylylene) | 10 to 79.4 nM | 10 to 79.4 nM | – | – | – |
| CCCCCC(=O)N[C@H]1CSCc2cccc(n2)CSC[C@@H](C(=O)N[C@@H](CC(=O)O)C(N)=O)NC(=O)[C@H](Cc2ccccc2)NC(=O)[C@H](CCC(N)=O)NC(=O)[C@H]([C@@H](C)O)NC(=O)[C@@H]2CCCN2C(=O)[C@@H]2CCCN2C1=O [3BP-3518, Hex-[Cys(2Lut)-Pro-Pro-Thr-Gln-Phe-Cys]-Asp-NH2] (Hexanoyl-CPPTQFCD-NH2; linker 1-7 via Pyridine(2,6-diCH2)) | < 10 nM | < 10 nM | – | – | – |
| CCCCCNC(=O)N[C@H]1CSCc2cccc(c2)CSC[C@@H](C(=O)N[C@@H](CC(=O)O)C(N)=O)NC(=O)[C@H](Cc2ccccc2)NC(=O)[C@H](CCC(N)=O)NC(=O)[C@H]([C@@H](C)O)NC(=O)[C@@H]2CCCN2C(=O)[C@@H]2CCCN2C1=O [3BP-3425, PentylNH-urea-[Cys(3MeBn)-Pro-Pro-Thr-Gln-Phe-Cys]-Asp-NH2] ({NHPentyl-CO}-CPPTQFCD-NH2; linker 1-7 via mXylylene) | < 10 nM | 10 to 79.4 nM | – | – | – |
| C[C@@H](O)[C@@H]1NC(=O)[C@@H]2CCCN2C(=O)[C@@H]2CCCN2C(=O)[C@@H](NC(=O)[C@H](CCCCNC(N)=O)NC(=O)CCC(=O)NCCCOCCOCCOCCCNC(=O)CN2CCN(CC(=O)O)CCN(CC(=O)O)CCN(CC(=O)O)CC2)CSCc2cccc(c2)CSC[C@@H](C(=O)NCCC(=O)O)NC(=O)[C@H](Cc2ccccc2)NC(=O)[C@H](CCC(N)=O)NC1=O [3BP-3399, DOTA-Ttds-Hci-[Cys(3MeBn)-Pro-Pro-Thr-Gln-Phe-Cys]-Bal-OH] | > 1000 nM | > 1000 nM | – | – | – |
